“And” between values parts separate entries of the source, which are not always exact repeats. Identical values can stand only once.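 48-hour exposure; five concentrations; linearly interpolated endpoints. The concentration for 50% growth inhibition is given as GI50. The concentration for full growth arrest is given as TGI.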
Legend:
Experiment in all cases: DTP human tumour cell line panel, 48 h
MDA-MB-231 breast = tested on: MDA-MB-231 breast
HOP-92 NSCLC = tested on: HOP-92 NSCLC
TK-10 renal = tested on: TK-10 renal
RPMI-8226 leukemia = tested on: RPMI-8226 leukemia
IGROV1 ovarian = tested on: IGROV1 ovarian
COLO 205 colon = tested on: COLO 205 colon
K-562 leukemia = tested on: K-562 leukemia
SK-MEL-2 melanoma = tested on: SK-MEL-2 melanoma
UACC-257 melanoma = tested on: UACC-257 melanoma
HL-60(TB) leukemia = tested on: HL-60(TB) leukemia

COc1cc([C@@H]2c3cc4c(cc3[C@@H](OC3OC5COC(C)OC5C(O)C3O)[C@H]3COC(=O)[C@H]23)OCO4)cc(OC)c1O (some centres not stated)
GI50 (MDA-MB-231 breast): 7.49 µM and 5.82 µM | TGI (MDA-MB-231 breast): > 35 µM and 34.4 µM and 8.11 µM | TGI (HOP-92 NSCLC): 37.9 µM and 114 µM | TGI (TK-10 renal): > 84.4 µM and 48.8 µM and 32 µM | GI50 (RPMI-8226 leukemia): 14.8 µM and 2.41 µM | TGI (RPMI-8226 leukemia): > 71.7 µM and 68 µM | TGI (IGROV1 ovarian): 67.8 µM and 159 µM and 157 µM

Cc1ccc2nc(CN(CCN(Cc3nc4ccc(C)cc4[nH]3)Cc3nc4ccc(C)cc4[nH]3)Cc3nc4ccc(C)cc4[nH]3)[nH]c2c1
GI50 (MDA-MB-231 breast): 1.88 µM | TGI (MDA-MB-231 breast): 3.3 µM | GI50 (HOP-92 NSCLC): 1.45 µM | TGI (HOP-92 NSCLC): 2.89 µM | GI50 (COLO 205 colon): 1.7 µM | TGI (COLO 205 colon): 3.15 µM | GI50 (K-562 leukemia): 1.72 µM | TGI (K-562 leukemia): 3.76 µM | GI50 (TK-10 renal): 1.48 µM | TGI (TK-10 renal): 2.95 µM | GI50 (SK-MEL-2 melanoma): 2.16 µM | TGI (SK-MEL-2 melanoma): 3.85 µM | GI50 (RPMI-8226 leukemia): 1.3 µM | TGI (RPMI-8226 leukemia): 2.95 µM | GI50 (UACC-257 melanoma): 1.81 µM | TGI (UACC-257 melanoma): 3.24 µM | GI50 (IGROV1 ovarian): 1.82 µM | TGI (IGROV1 ovarian): 3.35 µM

CN(C(=O)C12C3C4C1C1C2C3C41C#N)C(C)(C)C (configuration not stated)
TGI (COLO 205 colon): > 100 µM | TGI (K-562 leukemia): > 100 µM | TGI (TK-10 renal): > 100 µM | TGI (SK-MEL-2 melanoma): > 100 µM | TGI (HL-60(TB) leukemia): > 100 µM | TGI (RPMI-8226 leukemia): > 100 µM | TGI (UACC-257 melanoma): > 100 µM | TGI (IGROV1 ovarian): > 100 µM

CN(C)NC(=O)NC12CC3CC(CC(C3)C1)C2
TGI (HOP-92 NSCLC): > 100 µM | TGI (COLO 205 colon): > 100 µM | TGI (K-562 leukemia): > 100 µM | TGI (TK-10 renal): > 10 µM | TGI (SK-MEL-2 melanoma): > 100 µM | TGI (HL-60(TB) leukemia): > 100 µM | TGI (RPMI-8226 leukemia): > 100 µM | TGI (UACC-257 melanoma): > 100 µM | TGI (IGROV1 ovarian): > 100 µM

COc1ccc2c(Cl)cc(NC(=S)Nc3ccccc3)nc2c1
TGI (MDA-MB-231 breast): 56.4 µM | TGI (HOP-92 NSCLC): 49.4 µM | TGI (COLO 205 colon): > 100 µM | TGI (K-562 leukemia): 60.2 µM | TGI (TK-10 renal): > 100 µM | TGI (SK-MEL-2 melanoma): 55 µM | TGI (RPMI-8226 leukemia): 59.9 µM | TGI (UACC-257 melanoma): > 100 µM | TGI (IGROV1 ovarian): 54.3 µM

CSCSCC(CO)NC(=O)/C=C/c1c(C)[nH]c(=O)[nH]c1=O (configuration not stated)
TGI (HOP-92 NSCLC): > 100 µM | TGI (K-562 leukemia): > 100 µM | TGI (TK-10 renal): > 100 µM | TGI (SK-MEL-2 melanoma): > 100 µM | TGI (HL-60(TB) leukemia): > 100 µM | TGI (RPMI-8226 leukemia): > 100 µM | TGI (UACC-257 melanoma): > 100 µM

CCOC(=O)C(=O)CC(=O)C(Br)C(Br)c1ccc(Cl)cc1 (configuration not stated)
TGI (HOP-92 NSCLC): 59.6 µM | TGI (COLO 205 colon): 53.5 µM | TGI (K-562 leukemia): 40.8 µM | TGI (TK-10 renal): > 100 µM | TGI (SK-MEL-2 melanoma): > 100 µM | TGI (HL-60(TB) leukemia): 42 µM | TGI (RPMI-8226 leukemia): 51.8 µM | TGI (UACC-257 melanoma): 90.1 µM | TGI (IGROV1 ovarian): > 100 µM

Cc1nc2ccccc2c(=O)n1/N=C(\N=Nc1cc(Cl)ccc1Cl)c1ccc(N(C)C)cc1
TGI (COLO 205 colon): > 100 µM | TGI (K-562 leukemia): > 100 µM | TGI (TK-10 renal): > 100 µM | TGI (HL-60(TB) leukemia): 56.5 µM | TGI (RPMI-8226 leukemia): > 100 µM | TGI (IGROV1 ovarian): > 100 µM

CCNC(=O)O/N=C1\CCC2[C@@H]3CC=C4C[C@@H](OC(=O)NCC)CC[C@]4(C)C3CC[C@]12C (some centres not stated)
TGI (HOP-92 NSCLC): 13.3 µM | TGI (COLO 205 colon): 1.73 µM | TGI (K-562 leukemia): 4 µM | TGI (TK-10 renal): 5.9 µM | TGI (SK-MEL-2 melanoma): 9.87 µM | TGI (RPMI-8226 leukemia): 5.69 µM | TGI (UACC-257 melanoma): 3.33 µM | TGI (IGROV1 ovarian): > 100 µM

C(=C\c1ccc2ccccc2c1Nc1ccccc1)/c1ccccc1
TGI (HOP-92 NSCLC): 45.5 µM | TGI (COLO 205 colon): > 100 µM | TGI (K-562 leukemia): 26.1 µM | TGI (TK-10 renal): > 100 µM | TGI (SK-MEL-2 melanoma): > 100 µM | TGI (HL-60(TB) leukemia): > 100 µM | TGI (RPMI-8226 leukemia): > 72.5 µM | TGI (UACC-257 melanoma): > 100 µM | TGI (IGROV1 ovarian): > 100 µM

CCn1c(=O)nc2n(-c3ccc(SC)cc3)c3ccccc3nc-2c1=O
TGI (HOP-92 NSCLC): > 100 µM | TGI (COLO 205 colon): > 100 µM | TGI (K-562 leukemia): > 100 µM | TGI (TK-10 renal): > 100 µM | TGI (SK-MEL-2 melanoma): > 100 µM | TGI (HL-60(TB) leukemia): > 100 µM | TGI (RPMI-8226 leukemia): > 100 µM | TGI (UACC-257 melanoma): > 100 µM | TGI (IGROV1 ovarian): > 100 µM

O=C(CC1(O)C(=O)Nc2ccccc21)c1cccc(O)c1 (configuration not stated)
TGI (HOP-92 NSCLC): > 100 µM | TGI (COLO 205 colon): > 100 µM | TGI (K-562 leukemia): > 100 µM | TGI (TK-10 renal): > 100 µM | TGI (SK-MEL-2 melanoma): > 100 µM | TGI (HL-60(TB) leukemia): > 100 µM | TGI (RPMI-8226 leukemia): > 100 µM | TGI (UACC-257 melanoma): > 100 µM | TGI (IGROV1 ovarian): > 100 µM

CC(=O)O[C@H]1CSC[C@@H](OC(C)=O)C1[N+](=O)[O-] (some centres not stated)
TGI (HOP-92 NSCLC): 39.7 µM | TGI (COLO 205 colon): 49.1 µM | TGI (K-562 leukemia): > 100 µM | TGI (TK-10 renal): > 100 µM | TGI (SK-MEL-2 melanoma): 66.9 µM | TGI (HL-60(TB) leukemia): 54.6 µM | TGI (RPMI-8226 leukemia): 59.5 µM | TGI (UACC-257 melanoma): 52 µM | TGI (IGROV1 ovarian): > 100 µM

COc1cc(O)c(C(=O)C2Cc3ccccc32)c(OC)c1 (configuration not stated)
TGI (HOP-92 NSCLC): > 100 µM | TGI (COLO 205 colon): > 100 µM | TGI (K-562 leukemia): > 100 µM | TGI (TK-10 renal): > 100 µM | TGI (SK-MEL-2 melanoma): 95 µM | TGI (HL-60(TB) leukemia): 39.7 µM | TGI (RPMI-8226 leukemia): 47.4 µM | TGI (UACC-257 melanoma): > 100 µM | TGI (IGROV1 ovarian): > 100 µM

CCOC(=O)C(Oc1ccc(OC)c2c1C(=O)CCC2)c1ccccc1 (configuration not stated)
TGI (COLO 205 colon): > 100 µM | TGI (K-562 leukemia): > 100 µM | TGI (TK-10 renal): > 100 µM | TGI (SK-MEL-2 melanoma): > 100 µM | TGI (HL-60(TB) leukemia): > 100 µM | TGI (RPMI-8226 leukemia): > 100 µM | TGI (UACC-257 melanoma): > 100 µM | TGI (IGROV1 ovarian): > 100 µM

O=C(O)CN(CCN(CC(=O)O)CC(=O)O)CC(=O)O.[Cu+2].[Na+]
GI50 (MDA-MB-231 breast): > 100 µM | TGI (MDA-MB-231 breast): > 100 µM | GI50 (COLO 205 colon): > 100 µM | TGI (COLO 205 colon): > 100 µM | GI50 (K-562 leukemia): > 100 µM | TGI (K-562 leukemia): > 100 µM | GI50 (TK-10 renal): > 100 µM | TGI (TK-10 renal): > 100 µM | GI50 (SK-MEL-2 melanoma): > 100 µM | TGI (SK-MEL-2 melanoma): > 100 µM | GI50 (HL-60(TB) leukemia): > 100 µM | TGI (HL-60(TB) leukemia): > 100 µM | GI50 (RPMI-8226 leukemia): > 100 µM | TGI (RPMI-8226 leukemia): > 100 µM | GI50 (UACC-257 melanoma): > 100 µM | TGI (UACC-257 melanoma): > 100 µM | GI50 (IGROV1 ovarian): > 100 µM | TGI (IGROV1 ovarian): > 100 µM

— PubChem BioAssay (NCI)
